Literature values, collected in patent US20240122968A1, “ENHANCED NITRATE COMPOSITIONS AND METHODS OF USE” (ThermoLife International, LLC, priority 2019, published 2024).
Where two headings read alike, the source gives them in different places.

Tested on: blood pressure

[Zn] [Zinc]
effect on blood pressure (high doses): increase blood pressure

[Ca+2] [calcium]
effect on blood pressure (even at doses of 1.5 g per day (Weinberger et al.)): no notable effects on blood pressure
